The record followed here is PubChem BioAssay AID192 (DTP/NCI, 2004).

The subject of the test is BDF1 mice, B16 melanoma ip, median survival T/C. Nature of the test: NCI In Vivo Anticancer Drug Screen. Data for tumor model B16 Melanoma (intraperitoneal) in B6D2F1 (BDF1) mice. Conditions: endpoint: median survival time, higher = longer survival. The protocol: The antitumor activity of compounds was measured in mice bearing transplantable tumors. Survival or tumor size were measured and the results are expressed as the measurement made in the treated group (T) divided by the measurement made in the vehicle treated control group (C). The tumor model used in this assay is B16 Melanoma (intraperitoneal) in B6D2F1 (BDF1) mice

The mark [1] stands for this setting: dose: 50.0 mg/kg/injection, schedule: Q01DX009 (ip), vehicle: saline.
Where [2] appears, read: dose: 100.0 mg/kg/injection, schedule: Q01DX009 (ip), vehicle: saline.
Setting [3] is: dose: 12.5 mg/kg/injection, schedule: Q01DX009 (ip), vehicle: Klucel (hydroxypropylcellulose) (HPC).
[4] abbreviates: dose: 25.0 mg/kg/injection, schedule: Q01DX009 (ip), vehicle: Klucel (hydroxypropylcellulose) (HPC).
The mark [5] stands for this setting: dose: 50.0 mg/kg/injection, schedule: Q01DX009 (ip), vehicle: Klucel (hydroxypropylcellulose) (HPC).
Setting [6] is: dose: 100.0 mg/kg/injection, schedule: Q01DX009 (ip), vehicle: Klucel (hydroxypropylcellulose) (HPC).
Setting [7] is: dose: 200.0 mg/kg/injection, schedule: Q01DX009 (ip), vehicle: Klucel (hydroxypropylcellulose) (HPC).
Where [8] appears, read: dose: 400.0 mg/kg/injection, schedule: Q01DX009 (ip), vehicle: Klucel (hydroxypropylcellulose) (HPC).
[9] abbreviates: dose: 50.0 mg/kg/injection, schedule: Q01DX009 (ip), vehicle: saline with Tween-80.
[10] abbreviates: dose: 100.0 mg/kg/injection, schedule: Q01DX009 (ip), vehicle: saline with Tween-80.
Where [11] appears, read: dose: 200.0 mg/kg/injection, schedule: Q01DX009 (ip), vehicle: saline with Tween-80.
The mark [12] stands for this setting: dose: 400.0 mg/kg/injection, schedule: Q01DX009 (ip), vehicle: saline with Tween-80.
[13] abbreviates: dose: 12.5 mg/kg/injection, schedule: Q01DX009 (ip), vehicle: saline.
The mark [14] stands for this setting: dose: 25.0 mg/kg/injection, schedule: Q01DX009 (ip), vehicle: saline.

Where “and” joins values, the source holds several entries; their conditions need not be identical. Equal entries are not always repeated. Inconclusive results and toxic doses are left out.

On to `COc1cccc2c1C(=O)c1c(O)c3c(c(O)c1C2=O)C[C@@](O)(/C(C)=N/NC(=O)c1ccc(S(N)(=O)=O)cc1)C[C@@H]3OC1CC(N)C(O)C(C)O1` (stereo partly specified), for which the T/C (dose: 3.13 mg/kg/injection, schedule: Q01DX009 (ip), vehicle: water) is 190 % of control; the T/C (dose: 6.25 mg/kg/injection, schedule: Q01DX009 (ip), vehicle: water) was 258 % of control; the T/C (dose: 12.5 mg/kg/injection, schedule: Q01DX009 (ip), vehicle: water) was 259 % of control.

With `Oc1ccccc1O.[O-]c1ccccc1[O-].[O-]c1ccccc1[O-].[O]=[V+2]`, the T/C is 88 % of control (dose: 2.5 mg/kg/injection, schedule: Q01DX009 (ip), vehicle: saline); 91 % of control (dose: 5.0 mg/kg/injection, schedule: Q01DX009 (ip), vehicle: saline); 97 % of control (dose: 10.0 mg/kg/injection, schedule: Q01DX009 (ip), vehicle: saline).

As for `C[N+](C)(C)CC(=O)[O-]`, the T/C by setting is: under setting [1], 108 % of control; under setting [2], 101 % of control.

In the case of `CC(=O)OCC1OC(n2cc(CBr)nn2)C(OC(C)=O)C(OC(C)=O)C1OC(C)=O` (stereo unspecified), the T/C is 97 % of control (dose: 3.12 mg/kg/injection, schedule: Q01DX009 (ip), vehicle: Klucel (hydroxypropylcellulose) (HPC)); 98 % of control (dose: 6.25 mg/kg/injection, schedule: Q01DX009 (ip), vehicle: Klucel (hydroxypropylcellulose) (HPC)); 108 % of control under setting [3]; 100 % of control under setting [4]; 98 % of control under setting [5].

Consider `CC[C@H](CC[C@@H](C)[C@H]1CC[C@H]2[C@@H]3CC=C4C[C@@H](O)CC[C@]4(C)[C@H]3CC[C@]12C)C(C)C`, for which the T/C under setting [6] was 91 % of control, the T/C under setting [7] was 109 % of control and the T/C under setting [8] was 94 % of control.

As to `S=c1nc[nH]c2nc[nH]c12.[Ag]`, where the note is “dose: 300.0 mg/kg/injection, schedule: Q01DX009 (ip), vehicle: carboxymethylcellulose (CMC)”, the T/C was 118 % of control.

In the case of `Cc1cc(=O)[nH]c(N/N=C/c2ccccc2O)n1`, the T/C under setting [4] was 93 % of control, the T/C under setting [5] is 87 % of control, the T/C under setting [6] is 87 % of control and the T/C under setting [7] was 87 % of control.

Regarding `CCCCCC#CC(=O)OC`, the T/C runs as follows: (dose: 12.5 mg/kg/injection, schedule: Q01DX009 (ip), vehicle: saline with Tween-80) 102 % of control; (dose: 25.0 mg/kg/injection, schedule: Q01DX009 (ip), vehicle: saline with Tween-80) 86 % of control; under setting [9], 86 % of control.

As to `N=C(N)SCc1cccc([N+](=O)[O-])c1`, the T/C is, setting by setting: under setting [3], 93 % of control; under setting [4], 103 % of control; under setting [5], 97 % of control.

`CNc1ccccc1Cc1ccccc1`: the T/C reads like this: under setting [5], 103 % of control; under setting [6], 90 % of control; under setting [7], 99 % of control.

For `NC(=S)N/N=C1/c2cc(Cl)ccc2-c2c(NC(=O)C(Cl)Cl)cc(Cl)cc21`, the T/C is, setting by setting: under setting [10], 95 % of control; under setting [11], 93 % of control; under setting [12], 86 % of control.

For the compound `CC/C=C/c1cccc(OC)c1`, the T/C by setting is: under setting [6], 96 % of control; under setting [7], 96 % of control; under setting [8], 92 % of control.

Turning to `CC(=O)OCC1OC(n2ccc(N)nc2=O)C(OC(C)=O)C1OC(C)=O` (stereo unspecified), the T/C under setting [13] is 105 % of control, the T/C under setting [14] was 105 % of control, the T/C under setting [1] was 105 % of control and the T/C under setting [2] is 109 % of control.

For the compound `CCCCCCCC(=O)CCCC`, the T/C is 106 % of control under setting [6], 106 % of control under setting [7] and 94 % of control under setting [8].

`Nc1nc(Cl)nc2c1ncn2C1OC(CO)C(O)C1O` (stereo unspecified): the T/C is, setting by setting: under setting [14], 95 % of control; under setting [1], 93 % of control; under setting [2], 95 % of control.

As for `CCN(CC)CCNc1ccc(C)c2sc3ccccc3c(=O)c12`, the T/C is, setting by setting: (dose: 6.25 mg/kg/injection, schedule: Q01DX009 (ip), vehicle: suspension in saline) 103 % of control; (dose: 12.5 mg/kg/injection, schedule: Q01DX009 (ip), vehicle: suspension in saline) 105 % of control; (dose: 25.0 mg/kg/injection, schedule: Q01DX009 (ip), vehicle: suspension in saline) 103 % of control; (dose: 50.0 mg/kg/injection, schedule: Q01DX009 (ip), vehicle: suspension in saline) 102 % of control; (dose: 100.0 mg/kg/injection, schedule: Q01DX009 (ip), vehicle: suspension in saline) 120 % of control.

For `CCCCC(C(=O)OCC)C(CCC1CCCCC1)(C(=O)OCC)C(=O)OCC` (stereo unspecified), the T/C (dose: 12.5 mg/kg/injection, schedule: Q04DX003 (ip), vehicle: Klucel (hydroxypropylcellulose) (HPC)) was 90 % of control; the T/C (dose: 25.0 mg/kg/injection, schedule: Q04DX003 (ip), vehicle: Klucel (hydroxypropylcellulose) (HPC)) was 99 % of control; the T/C (dose: 50.0 mg/kg/injection, schedule: Q04DX003 (ip), vehicle: Klucel (hydroxypropylcellulose) (HPC)) was 87 % of control and 89 % of control.

On to `CN(C)CCC(c1ccccc1)c1cc(Cl)ccn1` (stereo unspecified), for which the T/C was 100 % of control (dose: 6.25 mg/kg/injection, schedule: Q01DX009 (ip), vehicle: saline); 103 % of control under setting [13]; 97 % of control under setting [14]; 97 % of control under setting [1]; 99 % of control under setting [2].

`COc1ccccc1NC(=O)Nc1ccc(F)cc1`: the T/C (dose: 100.0 mg/kg/injection, schedule: Q04DX003 (ip), vehicle: Klucel (hydroxypropylcellulose) (HPC)) was 95 % of control; the T/C (dose: 200.0 mg/kg/injection, schedule: Q04DX003 (ip), vehicle: Klucel (hydroxypropylcellulose) (HPC)) is 95 % of control; the T/C (dose: 400.0 mg/kg/injection, schedule: Q04DX003 (ip), vehicle: Klucel (hydroxypropylcellulose) (HPC)) was 89 % of control.

For `COc1cc(C(=O)OC(C)CN2CCOCC2)cc(OC)c1OC` (stereo unspecified), the T/C is 106 % of control (dose: 3.12 mg/kg/injection, schedule: Q04DX003 (ip), vehicle: saline); 111 % of control (dose: 6.25 mg/kg/injection, schedule: Q04DX003 (ip), vehicle: saline); 100 % of control under setting [13]; 106 % of control (dose: 12.5 mg/kg/injection, schedule: Q04DX003 (ip), vehicle: saline); 100 % of control under setting [14]; 105 % of control (dose: 25.0 mg/kg/injection, schedule: Q04DX003 (ip), vehicle: saline). For the same compound, the T/C runs as follows: under setting [1], 100 % of control; (dose: 50.0 mg/kg/injection, schedule: Q04DX003 (ip), vehicle: saline) 102 % of control; under setting [2], 108 % of control; (dose: 100.0 mg/kg/injection, schedule: Q04DX003 (ip), vehicle: saline) 98 % of control; (dose: 200.0 mg/kg/injection, schedule: Q01DX009 (ip), vehicle: saline) 102 % of control; (dose: 200.0 mg/kg/injection, schedule: Q04DX003 (ip), vehicle: saline) 118 % of control. For the setting “dose: 400.0 mg/kg/injection, schedule: Q04DX003 (ip), vehicle: saline”, the T/C was 97 % of control.

Consider `CC(C)CC(Br)C(=O)NCC(=O)NC(Cc1ccccc1)C(=O)O` (stereo unspecified), for which the T/C reads like this: under setting [9], 97 % of control; under setting [10], 95 % of control; under setting [11], 97 % of control.

For `N=N/C(=C\c1c(O)[nH]c2ccccc12)c1ccccc1`, the T/C by setting is: under setting [9], 98 % of control; under setting [10], 105 % of control; under setting [11], 98 % of control; under setting [12], 89 % of control.

On to `Cc1cc2c(cc1C)NC(=O)C(C)CN2` (stereo unspecified), for which the T/C reads like this: under setting [6], 90 % of control; under setting [7], 88 % of control; under setting [8], 87 % of control.

With `COc1ccc(C2c3cc4c(c(OC)c3CC3OCC(=O)C32)OCO4)cc1OC` (stereo unspecified), the T/C is 102 % of control under setting [3], 102 % of control under setting [4] and 117 % of control under setting [5].

On to `COC(=O)/C=C/c1ccc([N+](=O)[O-])cc1`, for which the T/C is, setting by setting: (dose: 100.0 mg/kg/injection, schedule: Q04DX003 (ip), vehicle: saline with Tween-80) 90 % of control; (dose: 200.0 mg/kg/injection, schedule: Q04DX003 (ip), vehicle: saline with Tween-80) 93 % of control; (dose: 400.0 mg/kg/injection, schedule: Q04DX003 (ip), vehicle: saline with Tween-80) 86 % of control.
